{"source": "patent US10278911B2", "about": "“Compositions containing cyclic peptides and methods of use” (Merck Patent GmbH, priority 2008, dated 2019)", "key": {"av-beta6": {"biological_target": "av-beta6 (Homo sapiens, UniProt P06756+P18564)", "sequence (P06756 31-1048)": "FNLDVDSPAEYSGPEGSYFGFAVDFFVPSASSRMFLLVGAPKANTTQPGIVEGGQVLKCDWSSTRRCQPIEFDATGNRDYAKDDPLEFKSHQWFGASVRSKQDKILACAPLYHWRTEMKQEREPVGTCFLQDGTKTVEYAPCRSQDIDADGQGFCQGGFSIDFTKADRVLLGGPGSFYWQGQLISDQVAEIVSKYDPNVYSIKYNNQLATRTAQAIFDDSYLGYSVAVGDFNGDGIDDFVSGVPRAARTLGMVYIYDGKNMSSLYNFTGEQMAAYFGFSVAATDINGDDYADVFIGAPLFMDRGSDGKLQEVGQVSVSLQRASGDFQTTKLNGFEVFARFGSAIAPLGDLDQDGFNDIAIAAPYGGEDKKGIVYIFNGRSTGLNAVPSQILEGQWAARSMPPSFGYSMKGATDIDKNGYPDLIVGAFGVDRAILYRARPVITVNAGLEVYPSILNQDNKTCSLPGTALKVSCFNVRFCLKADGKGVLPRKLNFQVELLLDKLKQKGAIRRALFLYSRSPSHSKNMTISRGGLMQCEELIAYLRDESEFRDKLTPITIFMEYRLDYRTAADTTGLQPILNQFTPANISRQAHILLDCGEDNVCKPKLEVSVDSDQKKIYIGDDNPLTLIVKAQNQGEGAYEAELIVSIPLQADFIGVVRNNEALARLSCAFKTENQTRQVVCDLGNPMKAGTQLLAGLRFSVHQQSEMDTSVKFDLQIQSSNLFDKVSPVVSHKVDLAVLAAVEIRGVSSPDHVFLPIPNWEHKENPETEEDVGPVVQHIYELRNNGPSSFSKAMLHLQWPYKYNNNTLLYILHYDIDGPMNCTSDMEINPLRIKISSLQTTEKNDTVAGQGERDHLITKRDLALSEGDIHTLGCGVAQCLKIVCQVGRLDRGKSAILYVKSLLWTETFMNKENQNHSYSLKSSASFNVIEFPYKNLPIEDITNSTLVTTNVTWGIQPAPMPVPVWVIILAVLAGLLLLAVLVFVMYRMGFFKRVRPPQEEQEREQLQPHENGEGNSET", "sequence (P18564 22-788)": "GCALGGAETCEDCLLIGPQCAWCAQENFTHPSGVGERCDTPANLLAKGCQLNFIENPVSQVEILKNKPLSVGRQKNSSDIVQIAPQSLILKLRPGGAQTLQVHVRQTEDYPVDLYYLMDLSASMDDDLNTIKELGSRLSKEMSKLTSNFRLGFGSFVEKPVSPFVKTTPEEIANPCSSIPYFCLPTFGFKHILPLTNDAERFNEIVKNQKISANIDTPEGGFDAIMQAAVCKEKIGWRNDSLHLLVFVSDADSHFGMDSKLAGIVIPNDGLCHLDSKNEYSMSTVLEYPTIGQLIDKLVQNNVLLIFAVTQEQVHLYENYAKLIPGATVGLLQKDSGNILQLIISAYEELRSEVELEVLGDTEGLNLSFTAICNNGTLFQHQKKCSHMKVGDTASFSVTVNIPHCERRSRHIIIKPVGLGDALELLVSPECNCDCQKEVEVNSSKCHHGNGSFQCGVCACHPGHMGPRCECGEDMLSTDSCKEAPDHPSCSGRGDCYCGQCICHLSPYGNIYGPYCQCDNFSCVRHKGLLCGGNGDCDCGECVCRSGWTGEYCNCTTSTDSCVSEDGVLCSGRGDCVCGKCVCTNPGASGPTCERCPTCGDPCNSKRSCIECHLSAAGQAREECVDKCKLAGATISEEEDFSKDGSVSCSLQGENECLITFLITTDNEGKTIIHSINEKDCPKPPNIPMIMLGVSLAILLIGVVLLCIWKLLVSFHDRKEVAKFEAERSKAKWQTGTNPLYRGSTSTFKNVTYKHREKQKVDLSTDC", "assay": "Integrin ligand activity (in vitro studies)", "assay_type": "binding"}, "av-beta3/5": {"system": "av-beta3/5", "assay": "Integrin ligand activity (in vitro studies)", "assay_type": "binding"}, "[1]": {"system": "full thickness skin model (human primary epidermal keratinocytes and human fibroblasts)", "assay": "cDNA-microarray gene expression profile of treated human skin model (PIQOR-skin)", "assay_type": "cell-based", "conditions": "0.5 μM, 4 days incubation", "description": "The following is a study to determine the gene expression profiles of Cyclo-(Arg-Gly-Asp-DPhe-Acha) (=CPPC 1) treated human skin.\nFor the analysis of deregulated gene expression induced by substance CPPC 1, treated and control samples from a human skin model are analyzed as follows: • A full thickness skin model (human primary epidermal keratinocytes and human fibroblasts), such as the Phenion® FTSM, commercially available from Phenion GmbH & Co. KG, Düsseldorf, Germany, is used. Cells are not pooled or genetically modified. • Gene expression analysis is carried out with PIQOR™-skin cDNA microarrays, which contains 1312 genes that are involved in target pathways related to stress, inflammation, pigmentation and depigmentation, moisturization, anti-ageing and hair follicle development in humans. For instance, cell cycle, apoptosis, DNA repair, oxidative metabolism, angiogenesis, cell adhesion cell-matrix interactions and signaling. Genes are represented with four replicate spots. • Treatment with CPPC 1 is performed in 0.5 μM concentration (4 days incubation, n=3 per condition). […] Profiling of Gene Expression—Input Genes\nA ratio (log 2) value of zero indicates no regulation, whereas positive (log 2) values indicate an upregulation and negative (log 2) values a downregulation of the relevant gene.\nThe deregulated genes for skin samples treated with 0.5 μM concentration is used for further analysis."}, "[2]": {"biological_target": "T1, vitronectin receptor aVβ3 (Homo sapiens, UniProt P05106+P06756)", "T1 construct": "Integrin αVβ3 is purified from human placental extracts; from tissue; host or cells: human placenta (extracts)", "T1 sequence (P06756 31-889 limits assumed)": "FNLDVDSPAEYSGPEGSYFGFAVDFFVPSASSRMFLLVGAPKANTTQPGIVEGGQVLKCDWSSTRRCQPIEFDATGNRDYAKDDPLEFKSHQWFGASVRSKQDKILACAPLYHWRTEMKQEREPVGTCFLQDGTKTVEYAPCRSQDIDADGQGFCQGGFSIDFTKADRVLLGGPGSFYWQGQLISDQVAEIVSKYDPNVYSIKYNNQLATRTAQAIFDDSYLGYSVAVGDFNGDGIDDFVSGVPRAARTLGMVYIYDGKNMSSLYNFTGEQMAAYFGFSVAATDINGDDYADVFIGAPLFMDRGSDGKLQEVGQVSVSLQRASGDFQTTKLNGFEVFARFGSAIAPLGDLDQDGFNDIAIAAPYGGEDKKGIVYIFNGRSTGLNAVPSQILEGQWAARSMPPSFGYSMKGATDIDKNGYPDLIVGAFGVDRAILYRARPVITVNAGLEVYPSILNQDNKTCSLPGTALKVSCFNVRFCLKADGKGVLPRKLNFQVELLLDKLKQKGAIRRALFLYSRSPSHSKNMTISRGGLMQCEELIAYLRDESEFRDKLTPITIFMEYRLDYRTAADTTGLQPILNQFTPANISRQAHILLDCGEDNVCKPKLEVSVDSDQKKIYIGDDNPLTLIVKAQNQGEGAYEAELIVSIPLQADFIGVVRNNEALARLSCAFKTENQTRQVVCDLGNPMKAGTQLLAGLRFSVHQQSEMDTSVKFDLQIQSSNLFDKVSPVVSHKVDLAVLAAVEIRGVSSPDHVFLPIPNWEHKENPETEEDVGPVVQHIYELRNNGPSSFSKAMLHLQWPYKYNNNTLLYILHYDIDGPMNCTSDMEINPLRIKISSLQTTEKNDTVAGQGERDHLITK", "T1 sequence (P06756 891-1048 partner limits assumed)": "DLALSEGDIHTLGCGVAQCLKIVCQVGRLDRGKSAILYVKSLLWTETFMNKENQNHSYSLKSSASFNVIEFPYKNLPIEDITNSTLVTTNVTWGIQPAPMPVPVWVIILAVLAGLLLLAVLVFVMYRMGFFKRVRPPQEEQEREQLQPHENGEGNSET", "T1 sequence (P05106 27-788)": "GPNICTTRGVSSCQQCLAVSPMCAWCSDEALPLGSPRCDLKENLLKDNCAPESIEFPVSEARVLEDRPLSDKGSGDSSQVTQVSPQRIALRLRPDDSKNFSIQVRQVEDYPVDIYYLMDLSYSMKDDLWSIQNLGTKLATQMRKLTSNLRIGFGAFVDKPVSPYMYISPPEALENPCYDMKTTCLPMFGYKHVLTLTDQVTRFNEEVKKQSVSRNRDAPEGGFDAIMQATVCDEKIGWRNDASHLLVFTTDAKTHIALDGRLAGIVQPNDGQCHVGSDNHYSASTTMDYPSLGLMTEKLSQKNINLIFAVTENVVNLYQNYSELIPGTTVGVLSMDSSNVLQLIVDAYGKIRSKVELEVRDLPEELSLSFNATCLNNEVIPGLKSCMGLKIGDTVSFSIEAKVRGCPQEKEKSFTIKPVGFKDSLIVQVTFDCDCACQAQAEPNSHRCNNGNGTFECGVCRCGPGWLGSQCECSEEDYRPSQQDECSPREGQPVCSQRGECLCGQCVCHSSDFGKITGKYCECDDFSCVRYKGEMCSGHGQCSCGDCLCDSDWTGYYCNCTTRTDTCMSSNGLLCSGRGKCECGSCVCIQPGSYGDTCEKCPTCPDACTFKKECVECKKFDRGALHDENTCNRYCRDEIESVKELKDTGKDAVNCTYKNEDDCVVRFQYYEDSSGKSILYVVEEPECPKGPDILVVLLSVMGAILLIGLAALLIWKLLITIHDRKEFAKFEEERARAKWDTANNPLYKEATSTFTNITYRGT", "assay": "Pentapeptides as inhibitors of αVβ3 (immobilized), solid-phase inhibition assay", "conditions": "αVβ3 from human placental extracts, binding of vitronectin, read-out: IC50 VN: αvβ3", "experimental": "Preparation and Characterization of Integrin αVβ3: Integrin αVβ3 is purified from human placental extracts by affinity chromatography on GRGDSPK peptide. Extraction and chromatography follows previously published protocols except that Triton X-100 is replaced by 25 mM octyl-P-D-glucopyranoside. Bound integrin is eluted with 10 mM EDTA into 1.5-ml vials containing 25 pl of 1 M MgCl, and concentrated in Centricon 100 microconcentrators. They are stored at 4° C. in neutral buffer containing 25 mM octyl glucoside, and 0.05% sodium azide. Protein concentrations were determined by a micro BCA assay (Pierce).\nSolid-phase inhibition assays are established for the inhibition of binding of the vitronectin receptor aVβ3 to their corresponding protein ligands by the cyclic peptides. Inhibitory activities (IC50) of cyclic RGD containing peptides for the binding of vitronectin (VN). Integrins are used as immobilized ligands."}, "human placental αVβ3": {"biological_target": "T2, human placental αVβ3 (Homo sapiens, UniProt P05106+P06756)", "T2 construct": "Purified human integrin αVβ3 from term placenta; from tissue; host or cells: human term placenta", "T2 sequence (P06756 31-889 limits assumed)": "as the sequence (P06756 31-889 limits assumed) above", "T2 sequence (P06756 891-1048 partner limits assumed)": "as the sequence (P06756 891-1048 partner limits assumed) above", "T2 sequence (P05106 27-788)": "as the sequence (P05106 27-788) above", "assay": "Receptor inhibition assay, binding of biotinylated ligands to human placental αVβ3", "conditions": "purified human placental αVβ3, biotinylated vitronectin, 3 h at 30° C.; read-out: IC50 VN: αvβ3", "description": "After 3 h at 30° C. bound ligand was measures by anti-biotin—alkaline phosphatase detection."}, "integrin αVβ3": {"biological_target": "integrin αVβ3 (Homo sapiens, UniProt P05106+P06756)", "sequence (P06756 31-1048)": "as the sequence (P06756 31-1048) above", "sequence (P05106 27-788)": "as the sequence (P05106 27-788) above", "assay": "Isolated integrin-ligand binding assay (ligand inhibition, immobilized integrin, biotinylated vitronectin)", "conditions": "immobilized recombinant human integrin, biotinylated human serum vitronectin as ligand", "description": "i) Isolated Integrin-Ligand Binding Assay The production of recombinant human integrin is known in the literature. […] In brief, 96-well ELISA plates are coated by adsorption from neutral aqueous buffers of 1 microg/ml integrin. After blocking residual sites on the plate with BSA, biotinylated ligands (1 microg/ml) are added in the presence or absence of serial dilutions of inhibitor, and after incubation and washing, bound biotin is detected with peroxidase-coupled anti-biotin antibody and TMB substrate."}}, "note": "Non-standard residues stand in square brackets, D forms with d. Residues, ends and D or L forms follow the SMILES beside them."}
{"smiles": "N=C(N)NCCC[C@@H]1NC(=O)C2(CCCCC2)NC(=O)[C@@H](Cc2ccccc2)NC(=O)[C@H](CC(=O)O)NC(=O)CNC1=O", "note": "[CPPC 1, Cyclo-(Arg-Gly-Asp-DPhe-Acha)]", "values": [{"measurement": "activity as av-beta6 ligand", "setting": "av-beta6", "result": "low active"}, {"measurement": "activity as av-beta3/5 ligand", "setting": "av-beta3/5", "result": "highly active"}, {"measurement": "ADAM9 gene expression, Compound vs. Control, ratio Log(2) value", "setting": "[1]", "result": 0.4854}, {"measurement": "ASC gene expression, Compound vs. Control, ratio Log(2) value", "setting": "[1]", "result": "−0.304"}, {"measurement": "BCL2L1 gene expression, Compound vs. Control, ratio Log(2) value", "setting": "[1]", "result": 0.263}, {"measurement": "BMP-3 gene expression in treated skin", "setting": "[1]", "result": "downregulated"}, {"measurement": "C19orf10 gene expression, Compound vs. Control, ratio Log(2) value", "setting": "[1]", "result": 0.263}, {"measurement": "CASP8 gene expression, Compound vs. Control, ratio Log(2) value", "setting": "[1]", "result": "−0.304"}, {"measurement": "CCNB2 gene expression, Compound vs. Control, ratio Log(2) value", "setting": "[1]", "result": 0.4647}, {"measurement": "CD81 gene expression, Compound vs. Control, ratio Log(2) value", "setting": "[1]", "result": 0.251}, {"measurement": "CDK2 gene expression, Compound vs. Control, ratio Log(2) value", "setting": "[1]", "result": 0.2265}, {"measurement": "CDK4 gene expression, Compound vs. Control, ratio Log(2) value", "setting": "[1]", "result": 0.1375}, {"measurement": "CLU gene expression, Compound vs. Control, ratio Log(2) value", "setting": "[1]", "result": 0.4436}, {"measurement": "DDR2 gene expression, Compound vs. Control, ratio Log(2) value", "setting": "[1]", "result": 0.2869}, {"measurement": "E2F3 gene expression, Compound vs. Control, ratio Log(2) value", "setting": "[1]", "result": "−0.3959"}, {"measurement": "EGF gene expression, Compound vs. Control, ratio Log(2) value", "setting": "[1]", "result": "−0.2345"}, {"measurement": "ELA2 gene expression, Compound vs. Control, ratio Log(2) value", "setting": "[1]", "result": "−0.2345"}, {"measurement": "FBLN1_4 gene expression, Compound vs. Control, ratio Log(2) value", "setting": "[1]", "result": 0.516}, {"measurement": "FBLN2 gene expression, Compound vs. Control, ratio Log(2) value", "setting": "[1]", "result": 0.3785}, {"measurement": "FGF1 gene expression, Compound vs. Control, ratio Log(2) value", "setting": "[1]", "result": 0.5059}, {"measurement": "FLOT2 gene expression, Compound vs. Control, ratio Log(2) value", "setting": "[1]", "result": 0.4542}, {"measurement": "GDF10 gene expression, Compound vs. Control, ratio Log(2) value", "setting": "[1]", "result": "−0.2863"}, {"measurement": "IGFBP4 gene expression, Compound vs. Control, ratio Log(2) value", "setting": "[1]", "result": 0.4854}, {"measurement": "IL2 gene expression, Compound vs. Control, ratio Log(2) value", "setting": "[1]", "result": "−0.5778"}, {"measurement": "IL6 gene expression, Compound vs. Control, ratio Log(2) value", "setting": "[1]", "result": 0.4854}, {"measurement": "IL7 gene expression, Compound vs. Control, ratio Log(2) value", "setting": "[1]", "result": "−0.3585"}, {"measurement": "IL8 gene expression, Compound vs. Control, ratio Log(2) value", "setting": "[1]", "result": 0.3219}, {"measurement": "IL17A gene expression, Compound vs. Control, ratio Log(2) value", "setting": "[1]", "result": "−0.6666"}, {"measurement": "JUN gene expression, Compound vs. Control, ratio Log(2) value", "setting": "[1]", "result": "−0.5778"}, {"measurement": "KRT2A gene expression, Compound vs. Control, ratio Log(2) value", "setting": "[1]", "result": 0.4005}, {"measurement": "KRT9 gene expression, Compound vs. Control, ratio Log(2) value", "setting": "[1]", "result": "−0.2688"}, {"measurement": "KRT19 gene expression, Compound vs. Control, ratio Log(2) value", "setting": "[1]", "result": 0.3334}, {"measurement": "LCN2 gene expression, Compound vs. Control, ratio Log(2) value", "setting": "[1]", "result": "−0.5564"}, {"measurement": "MCL1 gene expression, Compound vs. Control, ratio Log(2) value", "setting": "[1]", "result": 0.3674}, {"measurement": "PGF gene expression, Compound vs. Control, ratio Log(2) value", "setting": "[1]", "result": 0.2141}, {"measurement": "PTGS2 gene expression, Compound vs. Control, ratio Log(2) value", "setting": "[1]", "result": 0.4222}, {"measurement": "QSOX1 gene expression, Compound vs. Control, ratio Log(2) value", "setting": "[1]", "result": 0.433}, {"measurement": "S100A12 gene expression, Compound vs. Control, ratio Log(2) value", "setting": "[1]", "result": "−0.2515"}, {"measurement": "SDCBP gene expression, Compound vs. Control, ratio Log(2) value", "setting": "[1]", "result": 0.3896}, {"measurement": "SEPRASE gene expression, Compound vs. Control, ratio Log(2) value", "setting": "[1]", "result": 0.546}, {"measurement": "SOCS1 gene expression, Compound vs. Control, ratio Log(2) value", "setting": "[1]", "result": 0.3334}, {"measurement": "SPARC gene expression, Compound vs. Control, ratio Log(2) value", "setting": "[1]", "result": 0.3674}, {"measurement": "SPRR1A gene expression, Compound vs. Control, ratio Log(2) value", "setting": "[1]", "result": "−0.304"}, {"measurement": "STAT1 gene expression, Compound vs. Control, ratio Log(2) value", "setting": "[1]", "result": 0.3103}, {"measurement": "STAT5B gene expression, Compound vs. Control, ratio Log(2) value", "setting": "[1]", "result": "−0.1844"}, {"measurement": "TNF gene expression, Compound vs. Control, ratio Log(2) value", "setting": "[1]", "result": "−0.304"}, {"measurement": "TNFC gene expression, Compound vs. Control, ratio Log(2) value", "setting": "[1]", "result": "−0.3401"}, {"measurement": "TNFRSF1B gene expression, Compound vs. Control, ratio Log(2) value", "setting": "[1]", "result": "−0.3585"}, {"measurement": "TNFRSF25 gene expression, Compound vs. Control, ratio Log(2) value", "setting": "[1]", "result": "−0.2688"}, {"measurement": "TNFSF10 gene expression, Compound vs. Control, ratio Log(2) value", "setting": "[1]", "result": "−0.2688"}, {"measurement": "TNFSF13B gene expression, Compound vs. Control, ratio Log(2) value", "setting": "[1]", "result": "−0.2688"}, {"measurement": "TUBB gene expression, Compound vs. Control, ratio Log(2) value", "setting": "[1]", "result": 0.6599}, {"measurement": "TXLN gene expression, Compound vs. Control, ratio Log(2) value", "setting": "[1]", "result": "−0.8365"}, {"measurement": "bone morphogenic proteins (BMPs) gene expression in treated skin", "setting": "[1]", "result": "downregulated"}, {"measurement": "fibulins gene expression in treated skin", "setting": "[1]", "result": "upregulated"}, {"measurement": "number of deregulated genes selected (of 1312 genes on the microarray)", "setting": "[1]; p<0.05, at least […] deregulation", "result": 345}]}
{"smiles": "CC(C)[C@@H]1NC(=O)[C@H](Cc2ccccc2)NC(=O)[C@H](CC(=O)O)NC(=O)[C@@H](C)NC(=O)[C@H](CCCNC(=N)N)NC1=O", "note": "[Cyclo-(Arg-DAla-Asp-Phe-Val)] (cyclo(R[dA]DFV))", "values": [{"measurement": "IC50", "setting": "[2]", "result": "> 240000", "unit": "nM"}]}
{"smiles": "CC(C)(C)[C@@H]1NC(=O)[C@@H](Cc2ccc(F)cc2)NC(=O)[C@H](CC(=O)O)NC(=O)CNC(=O)[C@H](CCCNC(=N)N)NC1=O", "note": "[Cyclo-(Arg-Gly-Asp-DPhe(4-F)-Tle)]", "values": [{"measurement": "IC50", "setting": "human placental αVβ3", "result": 3, "unit": "nM"}]}
{"smiles": "C[C@H]1C(=O)N[C@@H](CCCNC(=N)N)C(=O)NCC(=O)N[C@@H](CC(=O)O)C(=O)N[C@H](Cc2ccccc2)C(=O)N1C", "note": "[Cyclo-(Arg-Gly-Asp-DPhe-(NMe)Ala)]", "values": [{"measurement": "IC50", "setting": "integrin αVβ3", "result": 24, "unit": "nM"}]}
